Assay results: patent US8809314B1, “Cephalosporin compound” (Cubist Pharmaceuticals, Inc., priority 2012, dated 2014)
Values after ≈ are worked out from the molar mass of the structure shown. Counter-ions that a name gives are not always drawn.

Assays:
[1] = system: Sa399 (MRSA); assay: MIC, broth microdilution (Example 3), Table 1; assay type: cell-based; settings: Staphylococcus aureus, CAMHB, final 2% NaCl
Description: (§1) To prepare for MIC testing, individual colonies were isolated by streaking frozen glycerol material containing Staphylococcus or Pseudomonas spp. onto rich, non-selective, tryptic soy agar containing 5% sheep's blood (TSAB), and incubated at 37° C. for 18-24 hrs.
(§2) On the day of testing, primary cultures were started by scraping off 5-10 colonies from the TSAB plates. The material was suspended in ˜5 mL of cation adjusted Mueller Hinton Broth (CAMHB) in 14 mL culture tubes and incubated at 37° C. with aeration (200 rpm) for ˜2 hrs until the OD600 was ≧0.1.
(§3) Inoculum cultures were prepared by standardizing the primary cultures to OD600=0.1 and then adding 20 μL of the adjusted primary culture per 1 mL CAMHB for Pseudomonas and CAMHB plus 4% NaCl for MRSA so that the final inoculum density was ˜10^5 colony forming units per milliliter. Diluted inoculum cultures were used to inoculate 50 μL per well in 96 well broth microdilution assay plates. 50 μL of CAMHB that contained compound concentrations ranging from 64-0.06 μg/mL in two-fold dilutions was also added to the broth microdilution assay plates for a final volume 100 μL per well, therefore final culture OD600 was approximately 0.001 and the final NaCl concentration for the MRSA strain was 2%.
(§4) Plates were incubated for 18-20 hours at 37° C. with aeration (200 rpm). Following incubation, growth was confirmed visually placing plates over a viewing apparatus (stand with a mirror underneath) and then OD600 was measured using a SpectraMax 340PC384 plate reader (Molecular Devices, Sunnyvale, Calif.). Growth was defined as turbidity that could be detected with the naked eye or achieving minimum OD600 of 0.1. MIC values were defined as the lowest concentration producing no visible turbidity.

[2] = system: Pa44 (WT Pa); assay: MIC, broth microdilution (Example 3), Table 1; assay type: cell-based; settings: Pseudomonas aeruginosa, CAMHB
Description: as §1, §2, §3, §4

[3] = system: Pseudomonas aeruginosa (n = 100); assay: MIC90, expanded MIC panel (Table 4); assay type: cell-based; settings: 100 Pa strains
Description: (§5) II. […] MIC90 values were defined as the concentration required to inhibit growth of 90% of the strains tested. • C. SAR was performed using the following isolates: Sa399 (ATCC43300, MRSA), Sa1721 (NARSA NRS384, MRSA USA 300), Pa44 (ATCC27853), and 4 clinical isolates (Pa2241, Pa2086 (mucoid strain), Pa2694 and Pa2698). • D. The in vitro antibacterial activity of the compound of formula (I) was further evaluated in an expanded MRSA and Pa MIC panel (see Table 4 and FIG. 6).

[4] = system: MRSA #712; assay: MIC in MHB by standard CLSI microdilution (Example 4); assay type: cell-based; settings: Staphylococcus aureus, MRSA
Source text: II. Methods • A. Animals: Six week-old, specific pathogen free, female CD-1 mice purchased from Charles River Laboratories (Wilmington, Mass.) were used for all studies after acclimation in Cubist animal facility. All animal procedures were approved by the Cubist Institutional Animal Care and Use Committee. • B. Bacteria and In Vitro Susceptibility Testing: MRSA #712, Pseudomonas aeruginosa #2245 and #2545, and Klebsiella pneumoniae #573 are clinical isolates; Pseudomonas aeruginosa #44 is an ATCC strain (ATCC#27853). MIC was determined in MHB by standard CLSI microdilution. Comparator Antibiotics Used in Animal Studies: Vancomycin hydrochloride USP was purchased from Hospira (Lake Forest, Ill.); ceftazidime hydrate from Sigma; Primaxin (imipenem and cilastatin) from Merck; ceftaroline was synthesized at a CRO. • D. Mouse Septicemia: Mice received lethal inocula of bacteria in 6% hog gastric mucin intraperitoneally (IP), followed by two treatment doses of antibiotics via subcutaneous (SC) administration at 1 and 6 hrs post-inoculation. The survival of animals was recorded daily for 7 days. The antibiotic dose calculated to protect 50% of the mice (PD50) was derived based on probit analysis of percentage survival. • E. Mouse Thigh and Lung Infections: Mice were rendered neutropenic by two IP injections of cyclophosphamide 4 days (150 mg/kg) and 1 day (100 mg/kg) before bacterial inoculation. Thigh or lung infection was induced by an intramuscular injection of 0.2 mL or intranasal inoculation of 0.1 mL inoculum preparation from an overnight bacterial culture into left thigh or nares. Tissues from one group of mice receiving no treatment (No Rx) were harvested at 1 hr for determination of baseline of bacterial burden. The remaining mice received two treatment doses of vehicles or antibiotics given SC at 1 and 6 hrs post-inoculation. Tissues from the treated mice were harvested at ˜24 hrs post-inoculation. Tissue bacterial burdens were quantified by serial dilution and spiral plating of homogenates.

[5] = system: MRSA #712; assay: Thigh infection in neutropenic mice; assay type: in vivo, Staphylococcus aureus
Description: (§6) In vivo efficacy of (I) was evaluated against strains of MRSA, and ceftazidime-resistant Pa and Klebsiella pneumonia (Kpn) in mouse septicemia, thigh and lung infections. Septicemia: CD-1 mice received lethal bacterial inocula IP, followed by 2 doses of antibiotics SC at 1 and 6 hrs post-inoculation. Dose calculated to protect 50% of the mice (PD50) was derived based on probit analysis of percentage survival. Thigh and lung infections: Thighs or lungs of neutropenic mice were inoculated with MRSA or Pa. Two treatment doses were given SC at 1 and 6 hrs post-inoculation. Tissues were harvested at ˜24 hrs post-inoculation and bacterial burdens quantified.
II. Methods • A. Animals: Six week-old, specific pathogen free, female CD-1 mice purchased from Charles River Laboratories (Wilmington, Mass.) were used for all studies after acclimation in Cubist animal facility. All animal procedures were approved by the Cubist Institutional Animal Care and Use Committee. • B. Bacteria and In Vitro Susceptibility Testing: MRSA #712, Pseudomonas aeruginosa #2245 and #2545, and Klebsiella pneumoniae #573 are clinical isolates; Pseudomonas aeruginosa #44 is an ATCC strain (ATCC#27853). MIC was determined in MHB by standard CLSI microdilution. […] The survival of animals was recorded daily for 7 days. The antibiotic dose calculated to protect 50% of the mice (PD50) was derived based on probit analysis of percentage survival. • E. Mouse Thigh and Lung Infections: Mice were rendered neutropenic by two IP injections of cyclophosphamide 4 days (150 mg/kg) and 1 day (100 mg/kg) before bacterial inoculation. […] Tissue bacterial burdens were quantified by serial dilution and spiral plating of homogenates.

[6] = system: MRSA #712; assay: Mouse septicemia (systemic infection), PD50; assay type: in vivo, Staphylococcus aureus; settings: CD-1 mice, IP inoculum, 2 SC doses at 1 and 6 hrs, 7 day survival
Description: as §6
II. […] MIC was determined in MHB by standard CLSI microdilution. […] The survival of animals was recorded daily for 7 days. The antibiotic dose calculated to protect 50% of the mice (PD50) was derived based on probit analysis of percentage survival. • E. Mouse Thigh and Lung Infections: Mice were rendered neutropenic by two IP injections of cyclophosphamide 4 days (150 mg/kg) and 1 day (100 mg/kg) before bacterial inoculation. […] Tissue bacterial burdens were quantified by serial dilution and spiral plating of homogenates.
III. […] The dose that protected 50% of the mice (PD50) was calculated by probit analysis based on percentage of mice surviving for 7 days post-inoculation. • C. […]

[7] = system: MRSA (n = 21); assay: MIC90, expanded MIC panel (Table 4); assay type: cell-based; settings: Staphylococcus aureus, MRSA, read-out: MIC90 MRSA (n = 21)
Description: as §5

Structure (SMILES) | MIC [1] [µg/mL] | MIC [2] [µg/mL] | further results
CO/N=C(\C(=O)N[C@@H]1C(=O)N2C(C(=O)[O-])=C(C[n+]3ccc(CNC(=O)c4ccccc4)cc3)CS[C@H]12)c1nc(N)sc1Cl [Compound 1-2] | ≤ 4 | > 16 | –
CCCc1ccc(C(=O)NCc2cc[n+](CC3=C(C(=O)[O-])N4C(=O)[C@@H](NC(=O)/C(=N\OC)c5nc(N)sc5Cl)[C@H]4SC3)cc2)cc1 [Compound 1-3] | 8 to 16 (≈ 11.7 to 23.4 µM) | > 16 | –
CO/N=C(\C(=O)N[C@@H]1C(=O)N2C(C(=O)[O-])=C(C[n+]3ccc(CNC(=O)c4cccc(CCNC(=O)C(F)(F)F)c4)cc3)CS[C@H]12)c1nc(N)sc1Cl [Compound 1-4] | 8 to 16 (≈ 10.2 to 20.5 µM) | > 16 | –
C[C@@H](O)[C@H]1C(=O)N2C(C(=O)O)=C(S[C@@H]3CN[C@H](C(=O)N(C)C)C3)[C@H](C)[C@H]12 [Meropenem] | – | – | MIC90 [3]: 4 µg/mL (≈ 10.4 µM)
CN[C@H](CC(C)C)C(=O)N[C@H]1C(=O)N[C@@H](CC(N)=O)C(=O)N[C@H]2C(=O)N[C@H]3C(=O)N[C@H](C(=O)N[C@H](C(=O)O)c4cc(O)cc(O)c4-c4cc3ccc4O)[C@H](O)c3ccc(c(Cl)c3)Oc3cc2cc(c3O[C@@H]2O[C@H](CO)[C@@H](O)[C@H](O)[C@H]2O[C@H]2C[C@](C)(N)[C@H](O)[C@H](C)O2)Oc2ccc(cc2Cl)[C@H]1O [Vancomycin, Vancomycin hydrochloride] | – | – | MIC [4]: 1 µg/mL; Thigh (T) ED−2log ([5]; MRSA #712 thigh infection, neutropenic mice, 2 SC doses at 1 and 6 hrs, 24 h, vs vehicle): >110 (T) mg/kg; reduction in bacterial CFU ([5]; MRSA #712 thigh, 110 mg/kg SC): ~1.5 log; Septicemia PD50 (± SE) [6]: 2.0 ± 1.3 mg/kg; MIC90 [7]: 1 µg/mL
